Test results as given in patent US12545637B2, “Extrahepatic targeted cationic lipid compound with high efficiency and low toxicity and its composition” (BEIJING YOUCARE KECHUANG PHARMACEUTICAL TECHNOLOGY CO., LTD., priority 2023, dated 2026).

How the values were obtained:
Assay type in all cases: cell-based
293T cells [1] = assay: Cell transfection test of LNP formulation of eGFP-mRNA (optimization of preparation conditions)
Method: The cationic lipid compound YK-407 synthesized in Example 1 was dissolved in ethanol with DSPC (AVT (Shanghai) Pharmaceutical Technology Co., Ltd.), cholesterol (AVT (Shanghai) Pharmaceutical Technology Co., Ltd.) and DMG-PEG2000 according to a molar ratio of 49:10:39.5:1.5, respectively, to prepare an ethanol lipid solution. The ethanol lipid solution was quickly added to citrate buffer (pH=4-5) by ethanol injection method, and vortexed for 30s for later use. eGFP-mRNA was diluted in citrate buffer (pH=4-5) to give an aqueous mRNA solution. A certain volume of liposome solution and mRNA aqueous solution were used to prepare liposomes at weight ratios of total lipids to mRNA of 5:1, 10:1, 15:1, 20:1, 30:1 and 35:1, respectively. The mixtures were sonicated at 25° C. for 15 min (with an ultrasonic frequency of 40 kHz and an ultrasonic power of 800 W). The resulted liposomes were diluted to 10 times volume with PBS, and then ultrafiltered with a 300KDa ultrafiltration tube to remove ethanol. Then the volume was fixed to a certain volume with PBS to give an LNP formulation encapsulating eGFP-mRNA using cationic lipid YK-407/DSPC/cholesterol/DMG-PEG2000 (49:10:39.5:1.5 in molar percentage).
The LNP formulation encapsulating eGFP-mRNA was prepared according to the method in 1, wherein the molar ratios of cationic lipid YK-407 to neutral lipid DSPC were 1:1, 3:1, 3.5:1, 4:1, 4.5:1, 4.9:1, 10:1, 15:1 and 20:1.
The LNP formulation encapsulating eGFP-mRNA was prepared according to the method in 1, wherein the cationic lipid in the carrier was YK-407, and the molar ratios of the polymer-conjugated lipid DMG-PEG2000 to the carrier were 0.5%, 1.5%, 3.5%, 5%, 10% and 15%, respectively.
The LNP formulation encapsulating eGFP-mRNA was prepared according to the method in 1, wherein the molar ratios of cationic lipid YK-407, neutral lipid DSPC, structured lipid cholesterol and polymer-conjugated lipid DMG-PEG2000 were 75:5:15:5, 49:10:39.5:1.5, 45:10:43.5:1.5, 45:25:20:10, 40:10:48.5:1.5, 35:10:53.5:1.5 and 25:5:65:5, respectively.
Cell recovery and passage: 293T cells were recovered, cultured in a culture dish, and passaged to the required number of cells.
Seeding plate: The cells in the culture dish were digested and counted. Cells were spread in a 96-well plate at 10,000 cells per well and in a 12-well plate at 150,000 cells per well. Cells were cultured overnight until the cells adhered to the wall.
Cell transfection test: The LNP formulation containing 1.5 μg of eGFP-mRNA prepared in Example 2 (the cationic lipid in the carrier was YK-407) and the Lipofectamin 3000 formulation of eGFP-mRNA were added respectively to the cell culture medium of the 12-well plate, and further incubated for 24 hours. The transfection efficiency of different samples was then investigated according to the fluorescence intensity by observing with a fluorescence microscope.

293T cells [2] = assay: Cell survival rate assay (CCK-8)
How it was run: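 293T cells seeded at 10,000 cells/well, cultured overnight, then exposed 24 h to LNP carrying 1.5 μg Fluc-mRNA (cationic:neutral:structured:PEG-type lipid 49:10:39.5:1.5) or Lipofectamine 3000. Viability read by CCK-8, 1 h incubation, absorbance at 450 nm.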

293T cells [3] = assay: Fluorescent detection of Fluc-mRNA (cell transfection efficiency of LNP formulations)

**Q.** CCCCCCCCC(CCCCCCCC)COC(=O)CCCCCN(CCCO)CCCN(CCCO)CCCCCC(=O)OCC(CCCCCCCC)CCCCCCCC [YK-423, di(2-octyldecyl) 6,6′-(propan-1,3-diyl-bis((3-hydroxypropyl)azanediyl))dihexanoate] was tested. Which “transfection efficiency at different molar ratios of polymer-conjugated lipid DMG-PEG2000 to carrier” value (293T cells [1]; 0.5% to 15%) did it give?
**A.** Its value is “same results”.

**Q.** And the “transfection effect at different molar ratios of cationic lipid, neutral lipid, structured lipid and polymer-conjugated lipid” value (293T cells [1]; 75:5:15:5 to 25:5:65:5)?
**A.** Its value is “same results”.

**Q.** And the Cell survival rate (293T cells [2]; LNP with 1.5 μg Fluc-mRNA, 24 hours, CCK-8)?
**A.** Its Cell survival rate is 71.14%.

**Q.** And the “cell survival rate higher than ALC-0315” value (293T cells [2]; difference vs ALC-0315)?
**A.** The value was 23.93%.

**Q.** What about the “cell survival rate higher than HIMA” value (293T cells [2]; difference vs HIMA (HHMA)) of the same molecule?
**A.** Its value is 6.87%.

**Q.** And the “cell survival rate higher than Lipofectamine 3000” value (293T cells [2]; difference vs Lipofectamine 3000)?
**A.** The value was 49.48%.

**Q.** And the “cell survival rate higher than SM-102” value (293T cells [2]; difference vs SM-102)?
**A.** The value was 3.24%.

**Q.** And the “cell survival rate higher than YK-404” value (293T cells [2]; difference vs YK-404)?
**A.** The value was 29.02%.

**Q.** What about the “cell survival rate higher than YK-405” value (293T cells [2]; difference vs YK-405) of the same molecule?
**A.** Its value is 29.28%.

**Q.** What about the “cell survival rate higher than YK-406” value (293T cells [2]; difference vs YK-406) of the same molecule?
**A.** The value was 46.18%.

**Q.** What about the “cell survival rate higher than YK-408” value (293T cells [2]; difference vs YK-408) of the same molecule?
**A.** Its value is 28.83%.

**Q.** What about the “cell survival rate higher than YK-409” value (293T cells [2]; difference vs YK-409) of the same molecule?
**A.** The value was 25.03%.

**Q.** What about the “cell survival rate higher than YK-410” value (293T cells [2]; difference vs YK-410) of the same molecule?
**A.** The value was 26.22%.

**Q.** And the “cell survival rate higher than YK-411” value (293T cells [2]; difference vs YK-411)?
**A.** The value was 54.81%.

**Q.** And the “cell survival rate higher than YK-412” value (293T cells [2]; difference vs YK-412)?
**A.** The value was 17.00%.

**Q.** And the “cell survival rate higher than YK-413” value (293T cells [2]; difference vs YK-413)?
**A.** Its value is 23.94%.

**Q.** And the “cell survival rate higher than YK-414” value (293T cells [2]; difference vs YK-414)?
**A.** The value was 42.39%.

**Q.** What about the “cell survival rate higher than YK-415” value (293T cells [2]; difference vs YK-415) of the same molecule?
**A.** The value was 9.98%.

**Q.** And the “cell survival rate higher than YK-416” value (293T cells [2]; difference vs YK-416)?
**A.** Its value is 30.17%.

**Q.** And the “cell survival rate higher than YK-417” value (293T cells [2]; difference vs YK-417)?
**A.** Its value is 49.80%.

**Q.** And the “cell survival rate higher than YK-418” value (293T cells [2]; difference vs YK-418)?
**A.** The value was 50.09%.

**Q.** And the “cell survival rate higher than YK-419” value (293T cells [2]; difference vs YK-419)?
**A.** The value was 32.22%.

**Q.** And the “cell survival rate higher than YK-420” value (293T cells [2]; difference vs YK-420)?
**A.** The value was 35.55%.

**Q.** What about the “cell survival rate higher than YK-421” value (293T cells [2]; difference vs YK-421) of the same molecule?
**A.** The value was 35.43%.

**Q.** And the “cell survival rate higher than YK-424” value (293T cells [2]; difference vs YK-424)?
**A.** The value was 43.21%.

**Q.** And the “cell survival rate higher than compound 21” value (293T cells [2]; difference vs compound 21)?
**A.** Its value is 3.30%.

**Q.** What about the “cell survival rate higher than compound 23” value (293T cells [2]; difference vs compound 23) of the same molecule?
**A.** The value was 2.03%.

**Q.** And the “cytotoxicity reduced compared with YK-411” value (293T cells [2]; rounded summary statement vs YK-411)?
**A.** Its value is 50%.

**Q.** What about the “Relative light unit (RLU)” value (293T cells [3]; LNP with 0.3 μg Fluc-mRNA, 96-well plate, 24 hours) of the same molecule?
**A.** Its value is 6227115 RLU.

**Q.** And the “cell transfection efficiency, times that of YK-415” value (293T cells [3]; ratio vs YK-415)?
**A.** Its value is 20.89.

**Q.** And the “cell transfection efficiency, times that of YK-417” value (293T cells [3]; ratio vs YK-417)?
**A.** The value was 53.09.

**Q.** What about the “cell transfection efficiency, times that of YK-418” value (293T cells [3]; ratio vs YK-418) of the same molecule?
**A.** The value was 55.97.

**Q.** What about the “cell transfection efficiency, times that of YK-424” value (293T cells [3]; ratio vs YK-424) of the same molecule?
**A.** Its value is 2.16.

**Q.** And the “RLU value, times that of compound 21” value (293T cells [3]; ratio vs compound 21)?
**A.** Its value is 4.12.

**Q.** What about the “RLU value, times that of compound 23” value (293T cells [3]; ratio vs compound 23) of the same molecule?
**A.** The value was 4.44.
